Laboratory results from patent publication US20090082271A1, “AGENTS THAT REDUCE APOE-INDUCED IMPAIRMENT OF MITOCHONDRIA AND METHODS OF USE THEREOF” (priority 2005, published 2009).
Entries after “also recorded” stand apart in the source; their conditions may differ.

Experiments:
[1] = tested on: differentiated PC12 cells; experiment: Time-lapse fluorescence recording of mitochondrial motility and morphology in neurites of differentiated PC12 cells (dsRed2-Mito); conditions: for mitochondrial motility increased: nimodipine 5 μM and AP5 50 μM together (both antagonists), with different forms of apoE; for reduction of percentage of motile mitochondria in response to neuronal activation: apoE 7.5 μg/ml 24 h, then repetitive depolarizations with KCl
Neuro-2a cells = experiment: MTT cell survival assay of Neuro-2a cells transiently transfected with apoE4 cDNA constructs; type: cell-based, mouse; conditions: expressed by transient transfection; 48 h after transfection; vs WT apoE4 / apoE4(1-272)
Protocol: Cell Culture and Transfection. […] ApoE4 expression levels were determined by anti-apoE western blotting of cell lysates and media. […] Thus, the results are not due to overexpression.
Cell Survival. […] Cell survival was estimated with an MTT colorimetric assay (52) 48 h after transfection.

[2] = tested on: rat primary hippocampal neurons; type: cell-based; conditions: apoE 7.5 μg/ml, 24 h
Description: FIGS. 12A and 12B. […] Scale bar=5 μm.

primary cortical neurons = experiment: Number, occupancy and size of mitochondria in dendrites of primary cortical neurons; type: cell-based, rat; conditions: vs apoE3-treated cells or controls
[3] = tested on: rat primary cortical neurons
[4] = tested on: PC12 cells stably expressing various forms of apoE; experiment: Mitochondrial dynamics in differentiated PC12 cells stably expressing various forms of apoE; type: cell-based, rat; conditions: endogenous (stably expressed) apoE, ~200 pg apoE per μg cellular protein; vs control
[5] = repetitive depolarization with KCl 90 mM

NC(CCCP(=O)(O)O)C(=O)O (stereo not drawn) [AP5, 2-amino-5-phosphonovalerate]
mitochondrial motility increased ([1]; 24 h): about 30%

L279Q: full-length WT apoE4 with single mutation L279Q
neurotoxicity (cell survival, MTT assay) (Neuro-2a cells): as neurotoxic as apoE4(1-272)

apoE4: full-length human apolipoprotein E4 (SEQ ID NO:1); expressed from cDNA or added as recombinant protein
density of dendritic spines decreased vs controls [2]: 19±5% | density of dendritic spines reduced compared with apoE3 [2]: 28±4% | number of mitochondria in dendritic spines (primary cortical neurons): many fewer mitochondria | spinal density reduced in response to neuronal activation, compared to controls ([3]; apoE 7.5 μg/ml 24 h, repetitive KCl depolarization): 48±11% | density of dendritic spines decreased vs controls ([3]; apoE 7.5 μg/ml, 24 h): 13±5% | density of dendritic spines reduced compared with apoE3 ([3]; apoE 7.5 μg/ml, 24 h): 27±5% | reduction of percentage of motile mitochondria in response to neuronal activation [1]: 30% | average length of mitochondria ([1]; exogenous apoE 7.5 μg/ml, 24 h): significantly reduced | retrograde velocity ([1]; exogenous apoE 7.5 μg/ml, 24 h): unaffected

COCCOC(=O)C1=C(C)NC(C)=C(C(=O)OC(C)C)C1c1cccc([N+](=O)[O-])c1 (stereo not drawn) [nimodipine]
mitochondrial motility increased ([1]; 24 h): about 30%

apoE3: recombinant apolipoprotein E3 isoform; also stably expressed in PC12 cells
percentage of motile mitochondria reduced [4]: unaffected | density of dendritic spines increased vs controls [2]: 11±4% | density of dendritic spines increased vs controls ([3]; apoE 7.5 μg/ml, 24 h): 20±6% | reduction of percentage of motile mitochondria in response to neuronal activation [1]: 58±6% | average length of mitochondria ([1]; exogenous apoE 7.5 μg/ml, 24 h): did not | mitochondrial motility / dynamics overall ([1]; exogenous apoE 7.5 μg/ml, 24 h): not affected | mitochondrial motility / dynamics overall ([1]; exogenous apoE 7.5 μg/ml, 24 h, listed as ApoE3): did not alter mitochondrial dynamics significantly

Q284A: full-length WT apoE4 with single mutation Q284A
neurotoxicity (cell survival, MTT assay) (Neuro-2a cells): as neurotoxic as apoE4(1-272)

NC1=N[C@H](O)[C@H]2[C@H]3O[C@]4(O)O[C@@H]([C@@H](O)[C@@]2(N1)[C@@H]4O)[C@]3(O)CO [TTX, tetrodotoxin]
differences in dendritic spine density between forms of apoE in the presence of TTX [3]: No significant differences | differences in mitochondrial dynamics between forms of apoE in the presence of TTX [1]: No significant differences | mitochondrial dynamics [1]: increased | mitochondrial index [1]: without affecting; also recorded: not affected

[Cl-].[K+] [KCl]
average moving velocity (anterograde direction) [1, 5]: drastically reduced | mitochondrial moving velocity (distance/time moving) [1, 5]: unaltered; also recorded: did not affect | net moving distance (anterograde direction) [1, 5]: drastically reduced | retrograde motility [1, 5]: No significant changes | mitochondrial index reduced ([1]; repetitive depolarizations with KCl (4×, 90 mM)): 22.5%

aa241-272 of apoE4: lipid binding region alone of apoE4 (AKLEEQAQQIRLQAEAFQARLKSWFEPLVEDM; UniProt P02649 259-290, looked up, fragment)
neurotoxicity (cell survival, MTT assay) (Neuro-2a cells): No neurotoxicity was observed
